These are literature values, as cited in patent US20040116514A1, “Compositions for preventing human cancer and method of preventing human cancer” (priority 2002, published 2004).

The subject of the series is humans. As to conditions: β-carotene alone administered in large quantities to humans (Omenn et al., 1996).

On to `CC1=C(/C=C/C(C)=C/C=C/C(C)=C/C=C/C=C(C)/C=C/C=C(C)/C=C/C2=C(C)CCCC2(C)C)C(C)(C)CCC1` [β-carotene], for which the “incidence rate of pulmonary cancer” value is on record as “actually rises”.
